Data reported in patent US4816464A, “10-Substituted benzo[b][1,6]naphthyridines as inhibitors of interleukin 1” (American Home Products Corporation, priority 1987, dated 1989).

Legend:
[1] = tested on: carrageenan paw edema; assay: rat carrageenan paw edema assay; type: in vivo, rat (Sprague-Dawley); conditions: for ED50: Rattus norvegicus, po, 3 h, read-out: Oral ED50 (95% C.L.); for % Change: 1 hour prior to carrageenan, edema at 3 hours
Protocol: The compounds of the invention are tested in the rat carrageenan paw edema assay to determined their ability to inhibit the acute inflammatory response. 140-180 gm male Sprague-Dawley rats, in groups of 6 animals, are injected subcutaneously in the right paw with 0.1 ml of 1% carrageenan at zero time. Mercury plethysmographic readings (ml) of the paw are made at zero time and 3 hours later. Test compounds are suspended or dissolved in 0.5% methylcellulose and given perorally 1 hour prior to carrageenan administration. The increase in paw volume (edema in ml.) produced by the carrageenan is measured. Paw edema is calculated (3 hour volume minus zero time volume), and percent inhibit of edema is determined. Unpaired Student's t-test is used to determine statistical significance.

[2] = tested on: IL 1-induced release of neutral protease from rabbit articular chondrocytes; assay: inhibition of IL 1-induced release of neutral protease from rabbit articular chondrocytes (azocoll assay); type: cell-based, rabbit (New Zealand White); conditions: Oryctolagus cuniculus, Chondrocyte, compound added 10 min before human IL 1, 24 h stimulation, read-out: % Inhibition (I.S.D.)
Protocol: The ability of the compounds of the inventions to inhibit interleukin 1 is measured by the ability of the test compounds to inhibit the IL 1-induced release of neutral protease from rabbit articular chondrocytes.
Male New Zealand White rabbits are anesthetized with 50 mg/kg of ketamine (i.m.) and killed by an intracardiac injection of 3 mls. of Nembutal. The knee joints of both legs are resected and the articular surfaces are exposed. Cartilage slices are obtained using a scalpel and are placed in a tissue culture dish (100 mm diameter) containing 10 mls of Hank's balanced salt solution (HBSS). The chondrocytes within the cartilage slices are then liberated by a series of enzyme digestions. The slices are incubated for 10 min. at 37° C. in 0.05% hyaluronidase (Sigma H-3884), rinsed with HBSS and incubated with 0.2% trypsin (Sigma T-2395) for 10 min. at 37° C. The slices are rinsed again and incubated for 10 mins. at 37° C. with 1.2% collagenase (Sigma C-5138). The slices are then rinsed again with HBSS and resuspended in 10 ml of Ham's F-12 medium containing 10% fetal bovine calf serum (FCS) and 0.2% collagenase and incubated overnight at 37° C. in a 5% CO2 incubator. The next day, the medium containing the digested cartilage fragments and liberated chondrocytes is transferred to a 15 ml centrifuge tube and the cells are collected by centrifugation and washed twice and resuspended in Ham's F-12 medium. The cells are then plated into 24-well tissue culture plates (2×10^5 cells/well) and incubated at 37° C. until confluent (usually 4-6 days).
The confluent chondrocytes are rinsed twice with serum-free Ham's F-12 medium and 1 ml is added to each well. Fifty μl of purified human IL 1 (100 Units/ml; Genzyme Corporation, Boston, MA) is then added to stimulate these cells to secrete neutral protease. To measure drug effects, the cells are treated with test compound 10 min. prior to addition of IL 1. The standard screening dose is 10 μM. Twenty-four hours after IL 1 stimulation, supernatant fluids are collected and assayed for neutral protease activity.
The neutral protease activity of chondrocyte supernatant fluids is determined by their ability to degrade an insoluble protease substrate, azocoll (Sigma). Supernatants are treated for 10 min. at room temperature with 350 μM p-aminophenylmurcuric acetate to activate the latent enzyme. Three hundred μl of supernatant is then mixed with 500 μl of a 20 mg/ml suspension of azocoll and incubated at 37° C. for 18-24 hrs. with gentle rocking. The mixtures are centrifuged and the amount of substrate hyrolyzed is determined by measuring the absorbance of the supernatant at 520 nm.
Drug effects are calculated as the % change in enzyme activity (absorbance)by supernatants from drug-treated chondrocytes relative to enzyme activity of supernatants from vehicle-treated chondrocytes as follows: [formula]

`CC(=O)Oc1ccccc1C(=O)O` [Aspirin, reference compound] showed an ED50 [1] of 145 mg/kg.

For `CCCCN1CCc2nc3cc(Cl)ccc3c(Cl)c2C1` [Example 1, 2-Butyl-7,10-dichloro-1,2,3,4-tetrahydrobenzo[b][1,6]naphthyridine], the inhibition at 10 µM [2] was 3%.

`CCCCCCCCN1CCc2nc3cc(Cl)ccc3c(Cl)c2C1` [Example 2, 7,10-dichloro-1,2,3,4-tetrahydro-2-octylbenzo[b][1,6]naphthyridine] gave an inhibition at 10 µM [2] of 51%.

`C=CCCCN1CCc2nc3cc(Cl)ccc3c(Cl)c2C1` [Example 4, 7,10-Dichloro-1,2,3,4-tetrahydro-2-(4-pentenyl)benzo[b][1,6]naphthyridine] was tested, and the inhibition at 10 µM [2] was 12 ± 5%.

Molecule `CN1CCc2nc3cc(Cl)ccc3c(Cl)c2C1` [Example 5] has an inhibition at 10 µM [2] of 26 ± 23%.

With `CN1CCc2nc3ccc(Cl)cc3c(Cl)c2C1` [Example 6, 8,10-Dichloro-1,2,3,4-tetrahydro-2-methylbenzo[b][1,6]naphthyridine] the inhibition at 10 µM [2] was 13 ± 6%.

With `CN1CCc2nc3cc(Cl)ccc3c(NNc3ccccc3)c2C1` [Example 7, 1-(7-Chloro-1,2,3,4-tetrahydro-2-methylbenzo[b][1,6]-naphthyridin-10-yl)-2-phenylhydrazine] the inhibition at 1 µM [2] was 35 ± 22%, the inhibition at 10 µM [2] was 78 ± 13% and the “% Change” value ([1]; 10 mg/kg perorally) was 41%. The “% Change” value ([1]; 30 mg/kg perorally) was 64%, the “% Change” value ([1]; 90 mg/kg perorally) was 68% and the “% Change” value ([1]; 100 mg/kg perorally) was 59%.

For `CCCCN1CCc2nc3cc(Cl)ccc3c(NNc3ccccc3)c2C1` [Example 8, 2-Butyl-7-chloro-1,2,3,4-tetrahydro-10-(2-phenyl-hydrazino)benzo[b][1,6]naphthyridine], the inhibition at 1 µM [2] was 22 ± 6%.

Molecule `CCCCCCCCN1CCc2nc3cc(Cl)ccc3c(NNc3ccccc3)c2C1` [Example 9, 7-Chloro-1,2,3,4-tetrahydro-2-octyl-10-(2-phenyl-hydrazino)benzo[6][1,6]naphthyridine] has an inhibition at 1 µM [2] of 22 ± 6%.

In the case of `C=CCN1CCc2nc3cc(Cl)ccc3c(NNc3ccccc3)c2C1` [Example 10, 7-Chloro-1,2,3,4-tetrahydro-10-(2-phenylhydrazino)-2-(2-propenyl)benzo[b][1,6]naphthyridine, dihydrate], the inhibition at 10 µM [2] is reported as 62 ± 2%.

`C=CCCCN1CCc2nc3cc(Cl)ccc3c(NNc3ccccc3)c2C1` [Example 11, 7-Chloro-1,2,3,4-tetrahydro-2-(4-pentenyl)-10-(2-phenyl-hydrazino)benzo[b][1,6]naphthyridine, sesquihydrate] was tested, and the inhibition at 10 µM [2] was 11 ± 26%.

With `COCCNc1c2c(nc3cc(Cl)ccc13)CCN(C)C2` [Example 12, 7-Chloro-1,2,3,4-tetrahydro-N-(2-methoxyethyl)-2-methylbenzo[b]-[1,6]naphthyridin-10-amine, three quarter hydrate] the inhibition at 10 µM [2] was 62 ± 28%.

`CN1CCc2nc3cc(Cl)ccc3c(NCCN3CCOCC3)c2C1` [Example 13, 7-Chloro-1,2,3,4-tetrahydro-2-methyl-N-(2-(4-morpholinyl)-ethyl)benzo[b][1,6]naphthyridin-10-amine] showed an inhibition at 10 µM [2] of 4 ± 13%.

`CN1CCc2nc3cc(Cl)ccc3c(Nc3ccccc3)c2C1` [Example 14, 10-Anilino-7-chloro-1,2,3,4-tetrahydro-2-methylbenzo[b][1,6]naphthyridine] gave an inhibition at 10 µM [2] of 14 ± 4%.

`CN1CCc2nc3cc(Cl)ccc3c(Oc3ccccc3)c2C1` [Example 15, 7-Chloro-1,2,3,4-tetrahydro-2-methyl-10-phenoxybenzo[b][1,6]naphthyridine] showed an inhibition at 10 µM [2] of 22 ± 28%.

Molecule `CN1CCN(c2c3c(nc4cc(Cl)ccc24)CCN(C)C3)CC1` [Example 16, 7-Chloro-1,2,3,4-tetrahydro-2-methyl-10-(4-methyl-1-piperazinyl)benzo[b][1,6]naphthyridine] has an inhibition at 5 µM [2] of 14 ± 3%.

Molecule `CN1CCc2nc3cc(Cl)ccc3c(Sc3ccccc3)c2C1` [Example 17, 7-Chloro-1,2,3,4-tetrahydro-2-methyl-10-thiophenylbenzo[b][1,6]naphthyridine] has an inhibition at 10 µM [2] of 44 ± 21%.

Molecule `CN1CCc2nc3ccc(Cl)cc3c(Oc3ccccc3)c2C1` [Example 18, 8-Chloro-1,2,3,4-tetrahydro-2-methyl-10-phenoxybenzo[b][1,6]naphthyridine] has an inhibition at 10 µM [2] of 9 ± 28%.

`CN1CCc2nc3ccc(Cl)cc3c(Nc3ccccc3)c2C1` [Example 19, 10-Anilino-8-chloro-1,2,3,4-tetrahydro-2-methylbenzo[b][1,6]naphthyridine] showed an inhibition at 10 µM [2] of 23 ± 25%.

Work on `CN1CCc2nc3ccc(Cl)cc3c(NN)c2C1` [Example 20, (8-Chloro-1,2,3,4-tetrahydro-2-methylbenzo[b][1,6]naphthyridin-10-yl)hydrazine] yielded an inhibition at 5 µM [2] of 18%.

For `CN1CCc2nc3ccc(Cl)cc3c(SCCCN)c2C1` [Example 21, 10-(3-Aminopropylthio)-8-chloro-1,2,3,4-tetrahydro-2-methylbenzo[b][1,6]naphthyridine], the inhibition at 10 µM [2] was 42 ± 26%.

In the case of `COc1ccc2c(c1)c(CC(=O)O)c(C)n2C(=O)c1ccc(Cl)cc1` [Indomethacin, reference compound], the ED50 [1] is reported as 3.7 mg/kg.
